Reference: patent publication US20020137929A1, “1 - (3-heterocyclylphenyl) isothiourea, -isourea, -guanidine and -amidine herbicidal agents” (Intellectual Property Department, BASF Aktiengesellschaft, priority 1998, published 2002)

How the values were obtained:
ABUTH (Velvetleaf) [1] = assay: Postemergence herbicidal evaluation; type: in vivo, Abutilon theophrasti; settings: postemergence
Method in brief: (§1)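 First, seedlings were raised for around two weeks. Next, test material in 50/50 acetone/water containing 0.5% TWEEN 20 was sprayed through a nozzle at 40 psi, equivalent to about 0.0156–0.500 kg/ha. Finally, after 4–5 weeks in the greenhouse, plants were rated 0–9.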

[2] = tested on: CHEAL (Lambsquarters, Common); assay: Postemergence herbicidal evaluation; type: in vivo, Chenopodium album; settings: postemergence
Method in brief: as §1

[3] = tested on: IPOHE (Morningglory, Ivyleaf); assay: Postemergence herbicidal evaluation; type: in vivo, Ipomoea hederacea; settings: postemergence
Method in brief: as §1

ECHCG (Barnyardgrass) [4] = assay: Postemergence herbicidal evaluation; type: in vivo, Echinochloa crus-galli; settings: postemergence
Method in brief: as §1

SETVI (Foxtail, Green) = assay: Postemergence herbicidal evaluation; type: in vivo, Setaria viridis; settings: postemergence
Method in brief: as §1

ORYSAT (Rice, Tebonnet) = assay: Postemergence herbicidal evaluation; type: in vivo, Oryza sativa, (L.) Tebonnet; settings: postemergence
Method in brief: as §1

ZEAMX (Corn, Field) [5] = assay: Postemergence herbicidal evaluation; type: in vivo, Zea mays; settings: postemergence
Method in brief: as §1

ABUTH (Velvetleaf) [6] = assay: Preemergence herbicidal evaluation; type: in vivo, Abutilon theophrasti; settings: rated 4-5 weeks after treatment
Method in brief: (§2)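 In this greenhouse assay, monocot and dicot seeds are planted in soil and treated prior to emergence with an aqueous acetone spray (about 0.0156-0.500 kg/ha). Plants are assessed visually against control on a 0-9 scale after 4-5 weeks.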

CASOB (Sicklepod) = assay: Preemergence herbicidal evaluation; type: in vivo, Cassia obtusifolia; settings: rated 4-5 weeks after treatment
Method in brief: as §2

[7] = tested on: CHEAL (Lambsquarters, Common); assay: Preemergence herbicidal evaluation; type: in vivo, Chenopodium album; settings: rated 4-5 weeks after treatment
Method in brief: as §2

[8] = tested on: IPOHE (Morningglory, Ivyleaf); assay: Preemergence herbicidal evaluation; type: in vivo, Ipomoea hederacea; settings: rated 4-5 weeks after treatment
Method in brief: as §2

ECHCG (Barnyardgrass) [9] = assay: Preemergence herbicidal evaluation; type: in vivo, Echinochloa crus-galli; settings: rated 4-5 weeks after treatment
Method in brief: as §2

[10] = tested on: GLXMAW (Soybean, Williams); assay: Preemergence herbicidal evaluation; type: in vivo, Glycine max, (L.) Merr. cv Williams; settings: rated 4-5 weeks after treatment
Method in brief: as §2

[11] = tested on: TRZAWR (Wheat, Winter, cv Riband); assay: Preemergence herbicidal evaluation; type: in vivo, Triticum aestivum; settings: rated 4-5 weeks after treatment
Method in brief: as §2

ZEAMX (Corn, Field) [12] = assay: Preemergence herbicidal evaluation; type: in vivo, Zea mays; settings: rated 4-5 weeks after treatment
Method in brief: as §2

CYPIR (Rice Flatsedge) = assay: Postemergence weed control under flooded paddy conditions; type: in vivo, Cyperus iria; settings: postemergence weeds, 3-4 weeks after treatment
Method in brief: (§3)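 With weeds 3 to 5 cm tall and rice at the 1.5 to 2.5 leaf stage, containers were flooded and water held 1.5 to 3 cm above soil. Compounds in 50/50 v/v aqueous/acetone went into the flood water at about 0.0313 to 0.500 kg/ha a.i. Effects were visually rated 0–9 against controls after three to four weeks in the greenhouse.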

CYPSE (Flatsedge) = assay: as above; type: in vivo, Cyperus serotinus; settings: postemergence weeds, 3-4 weeks after treatment
Method in brief: as §3

Structure (SMILES): CCOC(=O)CN1C(=O)C(CC(=O)O)S/C1=N/c1cc(-n2c(=O)cc(C(F)(F)F)n(C)c2=O)c(F)cc1Cl (stereo not shown) [Compound 16]
- ABUTH herbicidal rating (ABUTH (Velvetleaf) [1]; rate 0.0157 kg/ha): 9.0
- ABUTH herbicidal rating (ABUTH (Velvetleaf) [1]; rate 0.0313 kg/ha): 9.0
- ABUTH herbicidal rating (ABUTH (Velvetleaf) [1]; rate 0.0625 kg/ha): 9.0
- ABUTH herbicidal rating (ABUTH (Velvetleaf) [1]; rate 0.1250 kg/ha): 9.0
- ABUTH herbicidal rating (ABUTH (Velvetleaf) [1]; rate 0.2500 kg/ha): 9.0
- CHEAL herbicidal rating ([2]; rate 0.0157 kg/ha): 9.0
- CHEAL herbicidal rating ([2]; rate 0.0313 kg/ha): 8.2
- CHEAL herbicidal rating ([2]; rate 0.0625 kg/ha): 9.0
- CHEAL herbicidal rating ([2]; rate 0.1250 kg/ha): 9.0
- CHEAL herbicidal rating ([2]; rate 0.2500 kg/ha): 9.0
- IPOHE herbicidal rating ([3]; rate 0.0157 kg/ha): 9.0
- IPOHE herbicidal rating ([3]; rate 0.0313 kg/ha): 9.0
- IPOHE herbicidal rating ([3]; rate 0.0625 kg/ha): 9.0
- IPOHE herbicidal rating ([3]; rate 0.1250 kg/ha): 9.0
- IPOHE herbicidal rating ([3]; rate 0.2500 kg/ha): 9.0
- ECHCG herbicidal rating (ECHCG (Barnyardgrass) [4]; rate 0.0157 kg/ha): 3.0
- ECHCG herbicidal rating (ECHCG (Barnyardgrass) [4]; rate 0.0313 kg/ha): 8.8
- ECHCG herbicidal rating (ECHCG (Barnyardgrass) [4]; rate 0.0625 kg/ha): 9.0
- ECHCG herbicidal rating (ECHCG (Barnyardgrass) [4]; rate 0.1250 kg/ha): 9.0
- ECHCG herbicidal rating (ECHCG (Barnyardgrass) [4]; rate 0.2500 kg/ha): 9.0
- SETVI herbicidal rating (SETVI (Foxtail, Green); rate 0.0157 kg/ha): 9.0
- SETVI herbicidal rating (SETVI (Foxtail, Green); rate 0.0313 kg/ha): 7.8
- SETVI herbicidal rating (SETVI (Foxtail, Green); rate 0.0625 kg/ha): 9.0
- SETVI herbicidal rating (SETVI (Foxtail, Green); rate 0.1250 kg/ha): 9.0
- SETVI herbicidal rating (SETVI (Foxtail, Green); rate 0.2500 kg/ha): 9.0
- ORYSAT herbicidal rating (ORYSAT (Rice, Tebonnet); rate 0.0157 kg/ha): 3.0
- ORYSAT herbicidal rating (ORYSAT (Rice, Tebonnet); rate 0.0313 kg/ha): 4.2
- ORYSAT herbicidal rating (ORYSAT (Rice, Tebonnet); rate 0.0625 kg/ha): 5.7
- ORYSAT herbicidal rating (ORYSAT (Rice, Tebonnet); rate 0.1250 kg/ha): 7.3
- ORYSAT herbicidal rating (ORYSAT (Rice, Tebonnet); rate 0.2500 kg/ha): 7.5
- ZEAMX herbicidal rating (ZEAMX (Corn, Field) [5]; rate 0.0157 kg/ha): 8.0
- ZEAMX herbicidal rating (ZEAMX (Corn, Field) [5]; rate 0.0313 kg/ha): 8.1
- ZEAMX herbicidal rating (ZEAMX (Corn, Field) [5]; rate 0.0625 kg/ha): 8.4
- ZEAMX herbicidal rating (ZEAMX (Corn, Field) [5]; rate 0.1250 kg/ha): 8.7
- ZEAMX herbicidal rating (ZEAMX (Corn, Field) [5]; rate 0.2500 kg/ha): 9.0
- ABUTH preemergence herbicidal rating (ABUTH (Velvetleaf) [6]; rate 0.0156 kg/ha): 5.6
- ABUTH preemergence herbicidal rating (ABUTH (Velvetleaf) [6]; rate 0.0313 kg/ha): 8.1
- ABUTH preemergence herbicidal rating (ABUTH (Velvetleaf) [6]; rate 0.0625 kg/ha): 8.8
- ABUTH preemergence herbicidal rating (ABUTH (Velvetleaf) [6]; rate 0.1250 kg/ha): 8.9
- ABUTH preemergence herbicidal rating (ABUTH (Velvetleaf) [6]; rate 0.2500 kg/ha): 9.0
- ABUTH preemergence herbicidal rating (ABUTH (Velvetleaf) [6]; rate 0.5000 kg/ha): 9.0
- CASOB preemergence herbicidal rating (CASOB (Sicklepod); rate 0.0156 kg/ha): 0.3
- CASOB preemergence herbicidal rating (CASOB (Sicklepod); rate 0.0313 kg/ha): 0.6
- CASOB preemergence herbicidal rating (CASOB (Sicklepod); rate 0.0625 kg/ha): 2.7
- CASOB preemergence herbicidal rating (CASOB (Sicklepod); rate 0.1250 kg/ha): 5.3
- CASOB preemergence herbicidal rating (CASOB (Sicklepod); rate 0.2500 kg/ha): 8.3
- CASOB preemergence herbicidal rating (CASOB (Sicklepod); rate 0.5000 kg/ha): 9.0
- CHEAL preemergence herbicidal rating ([7]; rate 0.0156 kg/ha): 5.7
- CHEAL preemergence herbicidal rating ([7]; rate 0.0313 kg/ha): 8.4
- CHEAL preemergence herbicidal rating ([7]; rate 0.0625 kg/ha): 8.8
- CHEAL preemergence herbicidal rating ([7]; rate 0.1250 kg/ha): 9.0
- CHEAL preemergence herbicidal rating ([7]; rate 0.2500 kg/ha): 9.0
- CHEAL preemergence herbicidal rating ([7]; rate 0.5000 kg/ha): 9.0
- IPOHE preemergence herbicidal rating ([8]; rate 0.0156 kg/ha): 0.9
- IPOHE preemergence herbicidal rating ([8]; rate 0.0313 kg/ha): 3.5
- IPOHE preemergence herbicidal rating ([8]; rate 0.0625 kg/ha): 7.6
- IPOHE preemergence herbicidal rating ([8]; rate 0.1250 kg/ha): 8.7
- IPOHE preemergence herbicidal rating ([8]; rate 0.2500 kg/ha): 9.0
- IPOHE preemergence herbicidal rating ([8]; rate 0.5000 kg/ha): 9.0
- ECHCG preemergence herbicidal rating (ECHCG (Barnyardgrass) [9]; rate 0.0156 kg/ha): 0.0
- ECHCG preemergence herbicidal rating (ECHCG (Barnyardgrass) [9]; rate 0.0313 kg/ha): 0.3
- ECHCG preemergence herbicidal rating (ECHCG (Barnyardgrass) [9]; rate 0.0625 kg/ha): 0.6
- ECHCG preemergence herbicidal rating (ECHCG (Barnyardgrass) [9]; rate 0.1250 kg/ha): 1.8
- ECHCG preemergence herbicidal rating (ECHCG (Barnyardgrass) [9]; rate 0.2500 kg/ha): 4.4
- ECHCG preemergence herbicidal rating (ECHCG (Barnyardgrass) [9]; rate 0.5000 kg/ha): 7.1
- GLXMAW preemergence herbicidal rating ([10]; rate 0.0156 kg/ha): 0.5
- GLXMAW preemergence herbicidal rating ([10]; rate 0.0313 kg/ha): 0.7
- GLXMAW preemergence herbicidal rating ([10]; rate 0.0625 kg/ha): 1.5
- GLXMAW preemergence herbicidal rating ([10]; rate 0.1250 kg/ha): 4.5
- GLXMAW preemergence herbicidal rating ([10]; rate 0.2500 kg/ha): 7.7
- GLXMAW preemergence herbicidal rating ([10]; rate 0.5000 kg/ha): 9.0
- TRZAWR preemergence herbicidal rating ([11]; rate 0.0156 kg/ha): 0.1
- TRZAWR preemergence herbicidal rating ([11]; rate 0.0313 kg/ha): 0.5
- TRZAWR preemergence herbicidal rating ([11]; rate 0.0625 kg/ha): 0.5
- TRZAWR preemergence herbicidal rating ([11]; rate 0.1250 kg/ha): 0.8
- TRZAWR preemergence herbicidal rating ([11]; rate 0.2500 kg/ha): 2.6
- TRZAWR preemergence herbicidal rating ([11]; rate 0.5000 kg/ha): 5.8
- ZEAMX preemergence herbicidal rating (ZEAMX (Corn, Field) [12]; rate 0.0156 kg/ha): 0.1
- ZEAMX preemergence herbicidal rating (ZEAMX (Corn, Field) [12]; rate 0.0313 kg/ha): 0.6
- ZEAMX preemergence herbicidal rating (ZEAMX (Corn, Field) [12]; rate 0.0625 kg/ha): 1.4
- ZEAMX preemergence herbicidal rating (ZEAMX (Corn, Field) [12]; rate 0.1250 kg/ha): 1.8
- ZEAMX preemergence herbicidal rating (ZEAMX (Corn, Field) [12]; rate 0.2500 kg/ha): 3.7
- ZEAMX preemergence herbicidal rating (ZEAMX (Corn, Field) [12]; rate 0.5000 kg/ha): 6.0
- Herbicidal rating CYPIR (CYPIR (Rice Flatsedge); rate 0.0313 kg/ha): 0.0
- Herbicidal rating CYPIR (CYPIR (Rice Flatsedge); rate 0.0625 kg/ha): 0.0
- Herbicidal rating CYPIR (CYPIR (Rice Flatsedge); rate 0.1250 kg/ha): 4.0
- Herbicidal rating CYPIR (CYPIR (Rice Flatsedge); rate 0.2500 kg/ha): 9.0
- Herbicidal rating CYPSE (CYPSE (Flatsedge); rate 0.0313 kg/ha): 0.0
- Herbicidal rating CYPSE (CYPSE (Flatsedge); rate 0.0625 kg/ha): 0.0
- Herbicidal rating CYPSE (CYPSE (Flatsedge); rate 0.1250 kg/ha): 0.0
- Herbicidal rating CYPSE (CYPSE (Flatsedge); rate 0.2500 kg/ha): 0.0
